Reference: patent publication EP0966464B1, “SUBSTITUTED 2,4-DIAMINOPYRIMIDINES” (priority 1997, dated 1998)

How the values were obtained:
Experiment in all cases: Inhibition of purified bacterial dihydrofolate reductase (method of Baccanari and Joyner)
Type in all cases: biochemical
[1] = biological target: purified DHFR of the multiresistant strain S. aureus 157/4696 (Staphylococcus aureus, UniProt P0A017); settings: read-out: IC50 values S.aureus 157/4696, IC50 determined by means of a graph
Text: (§1) The inhibition of this enzyme was taken as a measurement of the antibacterial activity.

[2] = biological target: purified DHFR of the reference strain S. aureus ATCC 25923 (Staphylococcus aureus, UniProt P0A017)
Text: as §1

[3] = biological target: T1, purified DHFR of the multiresistant strain Streptococcus pneumoniae 1/1 (Streptococcus pneumoniae serotype 4, UniProt Q54801); settings: read-out: IC50 values S.pneumoniae 1/1, IC50 determined by means of a graph
T1 sequence (Q54801 1-168): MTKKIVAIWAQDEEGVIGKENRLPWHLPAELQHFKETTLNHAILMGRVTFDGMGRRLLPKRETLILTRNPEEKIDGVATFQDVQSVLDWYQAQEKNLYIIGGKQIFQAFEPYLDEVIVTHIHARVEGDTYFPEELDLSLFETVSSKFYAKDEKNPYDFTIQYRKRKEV
Text: as §1

Compound | IC50 [1] | IC50 [2] | IC50 [3]
COc1cc(Cc2cnc(N)nc2N)cc(/C=C/C(=O)N2N=Cc3ccccc3C2c2ccccc2)c1OC (racemic) [A, (E)-(RS)-3-[5-(2,4-Diamino-pyrimidin-5-ylmethyl)-2,3-dimethoxyphenyl]-1-(1-phenyl-1H-phthalazin-2-yl)-propenone] | 2 nM | 2 nM | 12 nM
COc1cc(Cc2cnc(N)nc2N)cc(/C=C/C(=O)N2N=Cc3ccccc3C2c2ccco2)c1OC (racemic) [B, (E)-(RS)-3-[5-(2,4-Diamino-pyrimidin-5-ylmethyl)-2,3-dimethoxyphenyl]-1-(1-furan-2-yl-1H-phthalazin-2-yl)-propenone] | 8 nM | 2 nM | 22 nM
COc1cc(Cc2cnc(N)nc2N)cc(/C=C/C(=O)N2N=Cc3ccccc3C2c2ccc(CO)cc2)c1OC (racemic) [C, (E)-(RS)-3-[5-(2,4-Diamino-pyrimidin-5-ylmethyl)-2,3-dimethoxyphenyl]-1-[1-(4-hydroxymethyl-phenyl)-1H-phthalazin-2-yl]-propenone] | 1 nM | 1 nM | 2 nM
COc1cc(Cc2cnc(N)nc2N)cc(/C=C/C(=O)N2N=Cc3ccccc3C2c2ccc(O)cc2)c1OC (racemic) [D, (E)-(RS)-3-[5-(2,4-Diamino-pyrimidin-5-ylmethyl)-2,3-dimethoxyphenyl]-1-[1-(4-hydroxy-phenyl)-1H-phthalazin-2-yl]-propenone] | 3 nM | 2 nM | 9 nM
CCC1c2ccccc2C=NN1C(=O)/C=C/c1cc(Cc2cnc(N)nc2N)cc(OC)c1OC (racemic) [E, (E)-(RS)-3-[5-(2,4-Diamino-pyrimidin-5-ylmethyl)-2,3-dimethoxyphenyl]-1-(1-ethyl-1H-phthalazin-2-yl)-propenone] | 12 nM | 2 nM | 18 nM
COc1cc(Cc2cnc(N)nc2N)cc(/C=C/C(=O)N2N=Cc3ccccc3C2CCCCO)c1OC (racemic) [F, (E)-(RS)-3-[5-(2,4-Diamino-pyrimidin-5-ylmethyl)-2,3-dimethoxyphenyl]-1-[1-(4-hydroxy-butyl)-1H-phthalazin-2-yl]-propenone] | 3 nM | 1 nM | 9 nM
CCCC1c2ccccc2C=NN1C(=O)/C=C/c1cc(Cc2cnc(N)nc2N)cc(OC)c1OC (racemic) [G, (E)-(RS)-3-{5-(2,4-Diamino-pyrimidin-5-ylmethyl)-2,3-dimethoxyphenyl}-1-(1-propyl-1H-phthalazin-2-yl)-propenone] | 6 nM | 2 nM | 5 nM
COc1cc(Cc2cnc(N)nc2N)cc(/C=C/C(=O)N2N=Cc3ccccc3C2c2ccc(C)nc2)c1OC (racemic) [I, (E)-(RS)-3-[5-(2,4-Diamino-pyrimidin-5-ylmethyl)-2,3-dimethoxyphenyl)-1-[1-(6-methyl-pyridin-3-yl)-1H-phthalazin-2-yl]-propenone] | 0.4 nM | 0.4 nM | 0.4 nM
CCc1ccc(C2c3ccccc3C=NN2C(=O)/C=C/c2cc(Cc3cnc(N)nc3N)cc(OC)c2OC)cn1 (racemic) [J, (E)-(RS)-3-[5-(2,4-Diamino-pyrimidin-5-ylmethyl)-2,3-dimethoxyphenyl]-1-[1-(6-ethyl-pyridin-3-yl)-1H-phthalazin-2-yl]-propenone] | 0.2 nM | 0.3 nM | 1.5 nM
COc1cc(Cc2cnc(N)nc2N)cc(/C=C/C(=O)N2N=Cc3ccccc3C2c2cnc(C)nc2)c1OC (racemic) [K, (E)-(RS)-3-[5-(2,4-Diamino-pyrimidin-5-ylmethyl)-2,3-dimethoxyphenyl]-1-[1-(2-methyl-pyrimidin-5-yl)-1H-phthalazin-2-yl]-propenone] | 0.6 nM | 0.6 nM | 2.5 nM
COc1cc(Cc2cnc(N)nc2N)cc(/C=C/C(=O)N2N=Cc3ccccc3[C@@H]2c2ccc(C)nc2)c1OC [H, (E)-(R)-3-[5-(2,4-Diamino-pyrimidin-5-ylmethyl)-2,3-dimethoxy-phenyl]-1-[1-(6-methyl-pyridin-3-yl)-1H-phthalazin-2-yl]-propenone] | 0.4 nM | 0.3 nM | 1.2 nM
